The record followed here is patent US20180303807A1, “ANDROGEN RECEPTOR LIGANDS” (DUKE UNIVERSITY, priority 2015, published 2018).

Common to all, as to type: cell-based
One data set deals with CV1 cells. Description: Toxicity of test compound in the CV1 reporter gene assay (Renilla-Luc). On the procedure:
Reporter Gene Assay (IC50 determination, Table 2, B1-B3). CV1 cells were seeded into 96-well cell culture plates and transfected with Lipofectin. For AR transcriptional assays, the DNA mixture consisted of pcDNA-AR, MMTV-Luc (androgen responsive reporter gene), and Renilla-Luc (for assessing transfection efficiency and toxicity). Following overnight incubation, cells were induced with hormone (0.1 nM R1881 (synthetic AR agonist) plus increasing concentrations of test compound) for 24 hrs. Cells were lysed and luciferase activity was quantified using Dual Luciferase Reagent (DLR). IC50 determination was assessed using GraphPad Prism software.
In general terms: Reporter assays use an easily measured gene product as a stand-in for the process of interest.

The target in data set [1] is T1, AR (Homo sapiens, UniProt P10275).
T1 construct: expressed in transfected cells; host or cells: CV1 cells
T1 sequence (P10275 1-920): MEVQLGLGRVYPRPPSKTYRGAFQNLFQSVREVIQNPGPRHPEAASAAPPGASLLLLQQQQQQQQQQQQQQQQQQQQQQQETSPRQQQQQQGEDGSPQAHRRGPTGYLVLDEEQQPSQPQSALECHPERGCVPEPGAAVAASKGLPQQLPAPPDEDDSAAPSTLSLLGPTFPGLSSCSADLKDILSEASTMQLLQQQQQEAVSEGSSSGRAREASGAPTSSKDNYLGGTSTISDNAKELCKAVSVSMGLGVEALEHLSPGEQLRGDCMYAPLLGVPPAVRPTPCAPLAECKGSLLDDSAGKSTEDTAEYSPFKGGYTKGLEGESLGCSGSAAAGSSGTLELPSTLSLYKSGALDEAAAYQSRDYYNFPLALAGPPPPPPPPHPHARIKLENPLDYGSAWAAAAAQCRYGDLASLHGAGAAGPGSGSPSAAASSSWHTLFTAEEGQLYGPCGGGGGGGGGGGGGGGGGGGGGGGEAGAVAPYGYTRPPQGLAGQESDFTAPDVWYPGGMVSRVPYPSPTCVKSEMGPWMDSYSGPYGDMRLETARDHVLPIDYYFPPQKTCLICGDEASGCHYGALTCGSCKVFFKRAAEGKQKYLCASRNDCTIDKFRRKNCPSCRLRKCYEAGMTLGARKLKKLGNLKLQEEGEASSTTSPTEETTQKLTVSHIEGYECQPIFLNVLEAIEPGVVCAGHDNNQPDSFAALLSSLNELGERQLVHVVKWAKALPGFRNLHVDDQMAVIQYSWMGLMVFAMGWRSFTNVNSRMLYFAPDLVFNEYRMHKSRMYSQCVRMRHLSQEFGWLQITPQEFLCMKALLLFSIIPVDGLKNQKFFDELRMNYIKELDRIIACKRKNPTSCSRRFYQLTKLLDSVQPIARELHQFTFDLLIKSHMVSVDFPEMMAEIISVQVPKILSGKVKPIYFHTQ
Nature of the data set: Reporter gene assay, AR transcriptional (MMTV-Luc) in CV1 cells. Particulars: pcDNA-AR + MMTV-Luc, 0.1 nM R1881 plus test compound, 24 hrs, read-out: B1 = AR transcriptional IC50 (μM) in CV1 cells. The method, boiled down:
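CV1 cells transiently co-transfected with human AR, MMTV-Luc reporter and Renilla-Luc (transfection efficiency and toxicity read-out), then stimulated 24 h with 0.1 nM R1881 plus increasing test compound concentrations. Firefly and Renilla luciferase quantified by dual-luciferase assay; IC50 derived from concentration-response.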

The subject of data set [2] is AR. Nature of the data set: Real-time PCR of AR target gene transcription in LNCaP-AR (AR overexpressing) cells, CRPC model. The following applies: 20 μM, score vs enzalutamide/bicalutamide; for B4 = Relative agonist activity (no R1881) of test compounds (20 μM) in AR overexpressing LNCaP cells (NKX3.1 AR target gene): no R1881, NKX3.1 gene; for B5 = Relative antagonist activity (plus 0.1 nM R1881) of test compounds (20 μM) in AR overexpressing LNCaP cells (NKX3.1 AR target gene): plus 0.1 nM R1881, NKX3.1 gene; for B7 = Relative antagonist activity (plus 0.1 nM R1881) of test compounds (20 μM) in AR overexpressing LNCaP cells (PSA AR target gene): plus 0.1 nM R1881, PSA gene. Set-up: key to B5 = Relative antagonist activity (plus 0.1 nM R1881) of test compounds (20 μM) in AR overexpressing LNCaP cells (NKX3.1 AR target gene) / B7 = Relative antagonist activity (plus 0.1 nM R1881) of test compounds (20 μM) in AR overexpressing LNCaP cells (PSA AR target gene): a score of 1 indicates higher antagonist efficacy (highly desired activity) than benchmark compound enzalutamide; a score of 2 indicates equal antagonist efficacy to enzalutamide (desirable); a score of 3 indicates antagonist efficacy between enzalutamide and bicalutamide (less desirable activity); a score of 4 indicates antagonist efficacy equal to bicalutamide (liability); a score of 5 indicates antagonist efficacy worse than bicalutamide (liability); key to B4 = Relative agonist activity (no R1881) of test compounds (20 μM) in AR overexpressing LNCaP cells (NKX3.1 AR target gene) / B6 Relative agonist activity (no R1881) of test compounds (20 μM) in AR overexpressing LNCaP cells (PSA AR target gene): a score of 1 indicates less agonism (highly desired activity) than benchmark compound enzalutamide; a score of 2 indicates equal agonism to enzalutamide (desirable); a score of 3 indicates agonism between enzalutamide and bicalutamide (less desirable activity); a score of 4 indicates equal agonism to bicalutamide (liability); a score of 5 indicates higher agonism than bicalutamide (liability). How it is done:
Real-Time PCR (CRPC model of AR overexpressing prostate cancer cells, Table 2, B4-B7). LNCaP-AR (AR overexpressing cells) cells were seeded in 12-well plates in RPMI 1640 (8% charcoal-stripped fetal calf serum (CFS)). […] AR target gene transcription (PSA, NKX3.1, FKBP5) was assessed by realtime PCR.
For B4-B7, scoring system is based on the relative AR target gene agonist/antagonist activity of test compounds when compared to benchmark compounds enzalutamide or bicalutamide. […] The lack of agonist activity is desirable for therapies intended to treat CRPC. For B4 and B6, a score of 1 indicates less agonism (highly desired activity) than benchmark compound enzalutamide, a score of 2 indicates equal agonism to enzalutamide (desirable), a score of 3 indicates agonism between enzalutamide and bicalutamide (less desirable activity), a score of 4 indicates equal agonism to bicalutamide (liability), and a score of 5 indicates higher agonism than bicalutamide (liability). For B5 and B7 a score of 1 indicates higher antagonist efficacy (highly desired activity) than benchmark compound enzalutamide, a score of 2 indicates equal antagonist efficacy to enzalutamide (desirable), a score of 3 indicates antagonist efficacy between enzalutamide and bicalutamide (less desirable activity), a score of 4 indicates antagonist efficacy equal to bicalutamide (liability), and a score of 5 indicates antagonist efficacy worse than bicalutamide (liability) For B9, Compounds that degrade AR (greater than 50% degradation at 10 μM) are indicated.
A general note: Quantitative PCR measures a nucleic acid by following its amplification.

Molecules are shown by their SMILES.

For orientation: IC50 means the concentration needed to halve the response being measured.

Consider `CC1(C)CC(=O)C2=C(C1)Nc1ccc3ccccc3c1C2c1cccc(C(F)(F)F)c1` (centres unmarked) [Compound A9], for which, in the data set with CV1 cells, the “B2 = % Toxicity of test compound (20 μM)” value is given as 0% and the “B3 = % Toxicity of test compound (60 μM)” value amounted to 0%. At AR [1], the IC50 was determined as 5.5 µM. Besides, in the data set with AR [2], the “B4 = Relative agonist activity (no R1881) of test compounds (20 μM) in AR overexpressing LNCaP cells (NKX3.1 AR target gene)” value stood at 1, the “B6 Relative agonist activity (no R1881) of test compounds (20 μM) in AR overexpressing LNCaP cells (PSA AR target gene)” value (“B6 Relative agonist activity (no R1881)” for short) amounted to 1, the “B5 = Relative antagonist activity (plus 0.1 nM R1881) of test compounds (20 μM) in AR overexpressing LNCaP cells (NKX3.1 AR target gene)” value is 1 and the “B7 = Relative antagonist activity (plus 0.1 nM R1881) of test compounds (20 μM) in AR overexpressing LNCaP cells (PSA AR target gene)” value (“B7 = Relative antagonist activity” below) amounted to 1.
For `N#Cc1ccc(C2C3=C(CCCC3=O)Nc3ccc4ccccc4c32)cc1` (centres unmarked) [Compound A22], in the data set on CV1 cells, the “B2 = % Toxicity of test compound (20 μM)” value is 0% and the “B3 = % Toxicity of test compound (60 μM)” value is listed as 66%. Moreover, the IC50 on AR [1] is over 10 µM. In addition, in the data set on AR [2], the “B6 Relative agonist activity (no R1881)” value was determined as 3 and the “B7 = Relative antagonist activity” value is on record as 3.
With `CC1(C)CC(=O)C2=C(C1)Nc1ccc3ncccc3c1C2c1ccc([N+](=O)[O-])cc1` (centres unmarked) [Compound A2, 9,9-dimethyl-12-(4-nitrophenyl)-8,9,10,12-tetrahydrobenzo[b][4,7]phenanthrolin-11(7H)-one], in the data set on CV1 cells, the “B2 = % Toxicity of test compound (20 μM)” value stood at 0% and the “B3 = % Toxicity of test compound (60 μM)” value was 51%. In addition, the IC50 at AR [1] is 0.2 µM. In addition, the “B7 = Relative antagonist activity” value in the data set with AR [2] stood at 1.
As to `CC1(C)CC(=O)C2=C(C1)Nc1ccc3ccccc3c1C2c1ccc(Cl)c([N+](=O)[O-])c1` (centres unmarked) [Compound A6], in the data set on CV1 cells, the “B2 = % Toxicity of test compound (20 μM)” value was 0% and the “B3 = % Toxicity of test compound (60 μM)” value is given as 0%. In addition, the IC50 at AR [1] was 3.8 µM. Also, in the data set on AR [2], the “B4 = Relative agonist activity (no R1881) of test compounds (20 μM) in AR overexpressing LNCaP cells (NKX3.1 AR target gene)” value came out at 1, the “B6 Relative agonist activity (no R1881)” value stood at 1, the “B5 = Relative antagonist activity (plus 0.1 nM R1881) of test compounds (20 μM) in AR overexpressing LNCaP cells (NKX3.1 AR target gene)” value turned out to be 1 and the “B7 = Relative antagonist activity” value came out at 1.
